{
  "source": "patent US20240158430A1",
  "about": "“NOVEL COMPOUND OR SALT THEREOF, AND ANTITUMOR ACTIVATOR CONTAINING SAME AS ACTIVE INGREDIENT” (AKITA UNIVERSITY, priority 2021, published 2024)",
  "type_in_all_cases": "cell-based",
  "key": {"β-catenin": {"tested_on": "β-catenin", "assay": "Influence on β-catenin, ELISA", "details": "control 11.5±2.3", "protocol": "(§1) The influence of GO-Y199 on NF-kB (p65) was investigated. The method is as follows. 3×10^6 cells of the HCT116 cell line were added to a 10-cm plate, 2 μM of GO-Y199 was added after 24 hours, the cells were collected after 24 hours, embedded in iPGell (GenOStaff), and fixed in formalin, paraffin blocks were then prepared, and immuno-histochemistry was performed with an anti-NF-kB (p65) antibody. In addition, 2 μM and 5 μM of GO-Y199 were added, lysates were collected after 24 hours, and an expression level of NF-kB (p65) was analyzed using an ELISA-plate (NF-kBp65 (pS536) SimpleStep-ELISA-kit, Abcam). An amount of protein was corrected by the absorbance of A 280 nm. The upper part of FIG. 14 indicates photographs of the control group and the GO-Y199 (2 μM)-added group after 24 hours. The lower part of FIG. 14 indicates results of the t-test of these groups after 24 hours. FIG. 15 indicates the comparison results of the NF-kB inhibitory effect of GO-Y199 (2 μM, 5 μM)-added groups with respect to the control group.\nThe influence of GO-Y199 on β-catenin was investigated. The method is as described above. Immunohistochemistry was performed with an anti-β-catenin antibody. Protein quantification was performed using an ELISA plate (proteintech). FIG. 17 indicates photographs of the control group and the GO-Y199 (2 μM)-added group after 24 hours. […]"}, "[1]": {"tested_on": "apoptosis-related protein", "assay": "Apoptosis-related protein, M30 Apotosense ELISA", "details": "control 360 U/L", "protocol": "as §1\nThe influence of GO-Y199 on Caspase 3 was investigated. The method is as described above. Immunohistochemistry was performed with an anti-Caspase 3 antibody. Quantification of apoptosis-related protein was performed using M30 Apotosense ELISA (PEVIVA). The upper part of FIG. 20 indicates photographs of the control group and the GO-Y199 (2 μM)-added group after 24 hours. […]"}, "[2]": {"tested_on": "colorectal cancer cell line HT29", "assay": "Cell growth inhibitory activity, HT29", "details": "Table 4; 72 hours"}, "[3]": {"tested_on": "breast cancer cell line HCC38", "assay": "Cell growth inhibitory activity, HCC38", "protocol": "[The source words this procedure for another cell line and reports this cell line under the same test.] (§2) The cell growth inhibitory activity against a colorectal cancer cell line HCT116 was measured. As an index of cell growth inhibitory activity, a concentration at which cell growth was inhibited by 50% as compared with a control (IC50) was used. The method is as follows. HCT116 was added to a 6-well plate by 5×10^4, compounds having various concentrations were added after 24 hours, and the number of cells was counted after 72 hours of culture. As the control, DMSO was used in an amount equal to the amount added in accordance with the addition concentration of the highest-concentration compound. The number of cells at each concentration relative to the control was expressed as a percentage.\n(§3) The method is as described above."}, "[4]": {"tested_on": "pancreatic cancer cell line ASPC-1", "assay": "Cell growth inhibitory activity, ASPC-1", "details": "Table 7", "protocol": "[The source words this procedure for another cell line and reports this cell line under the same test.] as §2, §3"}, "[5]": {"tested_on": "colorectal cancer cell line HCT116", "assay": "Cell growth inhibitory activity, HCT116", "protocol": "as §2, §3\nThe cell growth inhibitory activity (IC50) of each of curcumin, GO-Y199, and GO-Y206 against the colorectal cancer cell lines DLD-1 and HCT116 and the gastric cancer cell lines KATO III and H-111-TC was measured. The method is as described above."}, "[6]": {"tested_on": "gastric cancer cell line GCIY", "assay": "Cell growth inhibitory activity, GCIY", "protocol": "[The source words this procedure for another cell line and reports this cell line under the same test.] as §2, §3"}, "pSTAT3": {"tested_on": "pSTAT3", "assay": "Influence on pSTAT3, immunohistochemistry", "details": "2 μM; 24 hours; control 10.2±1.6%", "protocol": "as §1\nThe influence of GO-Y199 on pSTAT3 was investigated. The method is as described above. Immunohistochemistry was performed with an anti-pSTAT3 antibody. The upper part of FIG. 16 indicates photographs of the control group and the GO-Y199 (2 μM)-added group after 24 hours. The lower part of FIG. 16 indicates results of the t-test of these groups after 24 hours."}, "[7]": {"tested_on": "cutaneous T-cell lymphoma cell line HH", "assay": "Cell growth inhibitory activity, HH", "details": "Table 10", "protocol": "[The source words this procedure for another cell line and reports this cell line under the same test.] as §2, §3"}, "[8]": {"tested_on": "malignant melanoma cell line G361", "assay": "Cell growth inhibitory activity, G361", "details": "Table 9", "protocol": "[The source words this procedure for another cell line and reports this cell line under the same test.] as §2, §3"}, "[9]": {"tested_on": "malignant pleural mesothelioma cell line NCI-H226", "assay": "Cell growth inhibitory activity, NCI-H226", "details": "Table 8", "protocol": "as §2, with “percentage. In Table 3, the turbidities of the compounds are also indicated.” for “percentage.”\nGO-Y198, GO-Y199, and GO-Y200 against malignant pleural mesothelioma cell lines NCI-H226 and MSTO211H was measured. The method is as described above. For comparison, the IC50 of cisplatin (CDDP), a cytocidal anticancer agent, is also indicated."}},
  "note": "Where two headings read alike, the source gives them in different places.",
  "data": [
    {"smiles": "COCOc1cc(/C=C/C(=O)CC(SCCOCCOCCOCCOCc2cn([C@@H]3O[C@H](CO)[C@@H](O[C@@H]4O[C@H](CO)[C@H](O)[C@H](O)[C@H]4O)[C@H](O)[C@H]3O)nn2)c2cc(OCOC)cc(OCOC)c2)cc(OCOC)c1", "note": "(some centres unmarked) [GO-Y199]", "values": [
      {"measurement": "relative expression level of β-catenin", "setting": "β-catenin; 2 μM", "value": "2.8±0.8"},
      {"measurement": "relative expression level of β-catenin", "setting": "β-catenin; 5 μM", "value": "3.9±1.1"},
      {"measurement": "apoptosis-related protein activity (M30)", "setting": "[1]; 2 μM", "value": "1,830 U/L"},
      {"measurement": "apoptosis-related protein activity (M30)", "setting": "[1]; 5 μM", "value": "2,050 U/L"},
      {"measurement": "IC50", "setting": "[2]", "value": 750, "unit": "nM"},
      {"measurement": "IC50", "setting": "[3]; Table 4, 72 hours", "value": 1050, "unit": "nM"},
      {"measurement": "GO-Y199 vs GO-Y030 (IC50 comparison), HCC38", "setting": "[3]; Table 5, ratio of IC50", "value": 0.58},
      {"measurement": "IC50", "setting": "[4]", "value": 1.03, "unit": "µM"},
      {"measurement": "IC50", "setting": "[5]; Table 3, HCT116, cell count after 72 hours of culture vs DMSO control, read-out: IC50", "value": 0.43, "unit": "µM"},
      {"measurement": "GO-Y199 vs GO-Y030 (IC50 comparison), HCT-116", "setting": "[5]; Table 5, ratio of IC50", "value": 0.65},
      {"measurement": "GO-Y199 vs curcumin (IC50 comparison), HCT-116", "setting": "[5]; Table 5, ratio of IC50", "value": 0.029},
      {"measurement": "IC50", "setting": "[5]; Table 6, read-out: IC50 (μM) HCT116", "value": 0.98, "unit": "µM"},
      {"measurement": "IC50", "setting": "[5]; read-out: IC50 HCT-116, Table 4, 72 hours", "value": 0.46, "unit": "µM"},
      {"measurement": "IC50", "setting": "[6]; Table 4, 72 hours", "value": 160, "unit": "nM"},
      {"measurement": "GO-Y199 vs GO-Y030 (IC50 comparison), GCIY", "setting": "[6]; Table 5, ratio of IC50", "value": 1.24},
      {"measurement": "GO-Y199 vs curcumin (IC50 comparison), GCIY", "setting": "[6]; Table 5, ratio of IC50", "value": 0.03},
      {"measurement": "relative expression level of pSTAT3", "setting": "pSTAT3", "value": "0.3±0.5", "unit": "%"},
      {"measurement": "IC50", "setting": "[7]", "value": 1.11, "unit": "µM"},
      {"measurement": "IC50", "setting": "[8]", "value": 1.4, "unit": "µM"},
      {"measurement": "IC50", "setting": "[9]", "value": 4.7, "unit": "µM"}
    ]}
  ]
}
